Test system: 409-B2 iCRISPR-Cas9 iPSCs
Assay: PGE efficiency with iCRISPR Cas9 and ssODN donors
Format: cell-based, human
Protocol: FIG. 1: Genome editing and analysis flowchart. iCRISPR 409-B2 iPSCs are treated with 2 μg/ml doxycycline at least for 2 days to induce Cas9 or Cas9D10A expression. Reverse transfection with RNAiMAX, gRNA (7.5 nM each), ssODN (10 nM) and the small molecules to be evaluated is carried out in a 96 well plate for 1 day. The amount of cells used gives ˜80% confluency. Cells are then expanded for 3 days with regular media change. After harvest follows DNA extraction, PCR amplification of targeted loci, Illumina sequencing and CRISPResso (Pinello et al. 2016) sequence analysis for amount of indels and precise genome editing.
Cells were incubated with media containing 2 μg/ml doxycycline (Clontech, 631311) 2 days prior to lipofection. Lipofection (reverse transfection) was done using the alt-CRISPR manufacturer's protocol (IDT) with a final concentration of 7.5 nM of each gRNA and 10 nM of the respective ssODN. In brief, 0.75 μl RNAiMAX (Invitrogen, 13778075) and the respective oligonucleotides were separately diluted in 25 μl OPTI-MEM (Gibco, 1985-062) each and incubated at room temperature for 5 min. Both dilutions were mixed to yield 50 μl of OPTI-MEM including RNAiMAX, gRNAs and ssODNs. The lipofection mix was incubated for 20-30 min at room temperature. During incubation cells were dissociated using EDTA for 5 min and counted using the Countess Automated Cell Counter (Invitrogen). The lipofection mix, 100 μl containing 25.000 dissociated cells in mTeSR1 supplemented with Y-27632, 2 μg/ml doxycycline and the respective small molecule(s) to be tested were throughoutly mixed and put in one well of a 96 well covered with Matrigel Matrix (Corning, 35248). Media was exchanged to regular mTeSR1 media after 24 hours.
Three days after lipofection cells were dissociated using Accutase (SIGMA, A6964), pelleted, and resuspended in 15 μl QuickExtract (Epicentre, QE0905T). Incubation at 65° C. for 10 min, 68° C. for 5 min and finally 98° C. for 5 min was performed to yield ssDNA as a PCR template. Primers for each targeted loci of CALD1, KATNA1 and SLITRK1 containing adapters for Illumina sequencing were ordered from IDT (Coralville, USA). PCR was done in a T100 Thermal Cycler (Bio-Rad) using the KAPA2G Robust PCR Kit (Peqlab, 07-KK5532-03) with supplied buffer B and 3 μl of cell extract in a total volume of 25 μl. The thermal cycling profile of the PCR was: 95° C. 3 min; 34×(95° 15 sec, 65° C. 15 sec, 72° C. 15 sec); 72° C. 60 sec. P5 and P7 Illumina adapters with sample specific indices were added in a second PCR reaction (Kircher et al. 2012) using Phusion HF MasterMix (Thermo Scientific, F-531L) and 0.3 μl of the first PCR product. The thermal cycling profile of the PCR was: 98° C. 30 sec; 25× (98° 10 sec, 58° C. 10 sec, 72° C. 20 sec); 72° C. 5 min. Amplifications were verified by size separating agarose gel electrophoresis using EX gels (Invitrogen, G4010-11). The indexed amplicons were purified using Solid Phase Reversible Immobilization (SPRI) beads (Meyer, Kircher 2010). Double-indexed libraries were sequenced on a MiSeq (Illumina) giving paired-end sequences of 2×150 bp. After base calling using Bustard (Illumina) adapters were trimmed using leeHom (Renaud et al. 2014).
CRISPresso (Pinello et al. 2016) was used to analyse sequencing data from CRISPR genome editing experiments for percentage of wildtype, targeted nucleotide substitutions (TNS), indels and mix of TNS and indels. Parameters used for analysis were ‘-w 20’, ‘--min_identity_score 70’ and ‘--ignore_substitutions’ (analysis was restricted to amplicons with a minimum of 70% similarity to the wildtype sequence and to a window of 20 bp from each gRNA; substitutions were ignored, as sequencing errors would be falsely characterized as NHEJ-events). Sequencing data from colonies after single cell seeding (FIGS. 3B and C) was further analyzed by evaluating the actual read sequences using SAMtools. Clonal colonies were differentiated from mixed colonies using sequence read proportions. […]

[1] = CALD1, 20 μM NU7026, 5 μM NSC 15520
[2] = KATNA1, 20 μM NU7026, 5 μM NSC 15520
[3] = SLITRK1, 20 μM NU7026, 5 μM NSC 15520

SMILES	PGE increase (mean change vs control) [1] [fold]	PGE increase (mean change vs control) [2]	PGE increase (mean change vs control) [3]	effect on PGE frequency over CALD1, KATNA1 and SLITRK1 compared to controls (0.01 μM TSA, 0.5 μM MLN4924, 1 μM NSC 19630, 20 μM AICAR, 1 μM RS-1, 1 μM Resveratrol, 1 μM SCR7, 5 μM L755507, 5 μM STL127685, 20 μM B02)
O=c1cc(N2CCOCC2)oc2c1ccc1ccccc12 [NU7026]	1.5	1.6 fold	1.2 fold	
CC(C)C1=CC23CCC4C(C)(C(=O)O)CCCC4(C)C2CC1C(C(=O)O)C3C(=O)O (stereo not shown) [NSC 15520, Fumaropimaric acid]	1.3	no effect	no effect	
NS(=O)(=O)OC[C@@H]1C[C@@H](n2ccc3c(N[C@H]4CCc5ccccc54)ncnc32)C[C@@H]1O [MLN4924, Pevonedistat]				slight diminishing effect
